Measured values published in PubChem BioAssay AID1963970 (Molecular Pharmacology Branch, DTP, NCI, 2024).

Test system: 931267-113-T-J1-PDC multicell spheroid viability
Assay: Anticancer human tumor 931267-113-T-J1-PDC patient-derived colon adenocarcinoma cell line growth inhibition [PI3K]
Settings: for IC50: curve of first compound; for viability, T/C: stronger effect = lower value
Summary of the method: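 Spheroid viability read-out. Co-cultures contained the tumor line plus HUVEC and human MSCs. Each agent was paired with a PI3K inhibitor (inavolisib, alpelisib, duvelisib, copanlisib) across half-log dilutions starting at clinical Cmax, or at 10 microM when Cmax was unknown.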

[1] = second compound 0.00316 µM, first compound 0.0316 µM
[2] = second compound 0.00316 µM, first compound 0.1 µM
[3] = second compound 0.00316 µM, first compound 0.316 µM
[4] = second compound 0.00316 µM, first compound 1 µM
[5] = second compound 0.00316 µM, first compound 3.16 µM
[6] = second compound 0.00316 µM, first compound 10 µM
[7] = second compound 0.01 µM, first compound 0.0316 µM
[8] = second compound 0.01 µM, first compound 0.1 µM
[9] = second compound 0.01 µM, first compound 0.316 µM
[10] = second compound 0.01 µM, first compound 1 µM
[11] = second compound 0.01 µM, first compound 3.16 µM
[12] = second compound 0.01 µM, first compound 10 µM
[13] = second compound 0.0316 µM, first compound 0.0316 µM
[14] = second compound 0.0316 µM, first compound 0.1 µM
[15] = second compound 0.0316 µM, first compound 0.316 µM
[16] = second compound 0.0316 µM, first compound 1 µM
[17] = second compound 0.0316 µM, first compound 3.16 µM
[18] = second compound 0.0316 µM, first compound 10 µM
[19] = second compound 0.1 µM, first compound 0.0316 µM
[20] = second compound 0.1 µM, first compound 0.1 µM
[21] = second compound 0.1 µM, first compound 0.316 µM
[22] = second compound 0.1 µM, first compound 1 µM
[23] = second compound 0.1 µM, first compound 3.16 µM
[24] = second compound 0.1 µM, first compound 10 µM
[25] = second compound 0.316 µM, first compound 0.0316 µM
[26] = second compound 0.316 µM, first compound 0.1 µM
[27] = second compound 0.316 µM, first compound 0.316 µM
[28] = second compound 0.316 µM, first compound 1 µM
[29] = second compound 0.316 µM, first compound 3.16 µM
[30] = second compound 0.316 µM, first compound 10 µM
[31] = second compound 1 µM, first compound 0.0316 µM
[32] = second compound 1 µM, first compound 0.1 µM
[33] = second compound 1 µM, first compound 0.316 µM
[34] = second compound 1 µM, first compound 1 µM
[35] = second compound 1 µM, first compound 3.16 µM
[36] = second compound 1 µM, first compound 10 µM
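Note: viability read 7 days after compound addition.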

Work on C#Cc1c(F)ccc2cc(O)cc(-c3ncc4c(N5CC6CCC(C5)N6)nc(OCC56CCCN5CC(F)C6)nc4c3F)c12 (centres undefined) + CC(Nc1ccc2c(c1)OCCn1cc(N3C(=O)OCC3C(F)F)nc1-2)C(N)=O yielded an IC50 (second compound 0.00316 µM) of 531 nM, an IC50 (second compound 0.01 µM) of 419 nM and an IC50 (second compound 0.0316 µM) of 364 nM. It also gave an IC50 (second compound 0.1 µM) of 219 nM, an IC50 (second compound 0.316 µM) of 179 nM and an IC50 (second compound 1 µM) of 55.8 nM. The viability, T/C [1] was 76.7%, the viability, T/C [2] was 76.6% and the viability, T/C [3] was 49%. For the same compound, the viability, T/C [4] was 45.8%, the viability, T/C [5] was 33.9% and the viability, T/C [6] was 26%. It also gave a viability, T/C [7] of 79%, a viability, T/C [8] of 65.4% and a viability, T/C [9] of 52.9%. The viability, T/C [10] was 41.8%, the viability, T/C [11] was 31.3% and the viability, T/C [12] was 24.8%. It also gave a viability, T/C [13] of 83.5%, a viability, T/C [14] of 65.3% and a viability, T/C [15] of 53.4%. It also gave a viability, T/C [16] of 36.6%, a viability, T/C [17] of 29.1% and a viability, T/C [18] of 18.8%. The viability, T/C [19] was 82.4%, the viability, T/C [20] was 63.3% and the viability, T/C [21] was 43.7%. It also gave a viability, T/C [22] of 29.4%, a viability, T/C [23] of 22.9% and a viability, T/C [24] of 17%. It also gave a viability, T/C [25] of 72.3%, a viability, T/C [26] of 56.4% and a viability, T/C [27] of 45%. The viability, T/C [28] was 25.1%, the viability, T/C [29] was 19.8% and the viability, T/C [30] was 13.3%. For the same compound, the viability, T/C [31] was 57.5%, the viability, T/C [32] was 43.9% and the viability, T/C [33] was 26%. It also gave a viability, T/C [34] of 23.6%, a viability, T/C [35] of 14.7% and a viability, T/C [36] of 10.8%.

With C=CC(=O)N1CCN(c2nc(=O)n(-c3c(C)ccnc3C(C)C)c3nc(-c4c(O)cccc4F)c(F)cc23)C(C)C1 (centres undefined) + CC(Nc1ccc2c(c1)OCCn1cc(N3C(=O)OCC3C(F)F)nc1-2)C(N)=O the IC50 (second compound 0.00316 µM) was over 10000 nM, the IC50 (second compound 0.01 µM) was over 10000 nM and the IC50 (second compound 0.0316 µM) was over 10000 nM. For the same compound, the IC50 (second compound 0.1 µM) was over 10000 nM, the IC50 (second compound 0.316 µM) was over 10000 nM and the IC50 (second compound 1 µM) was over 10000 nM. For the same compound, the viability, T/C [1] was 108%, the viability, T/C [2] was 106% and the viability, T/C [3] was 100%. The viability, T/C [4] was 114%, the viability, T/C [5] was 115% and the viability, T/C [6] was 107%. It also gave a viability, T/C [7] of 94.8%, a viability, T/C [8] of 98% and a viability, T/C [9] of 117%. For the same compound, the viability, T/C [10] was 118%, the viability, T/C [11] was 110% and the viability, T/C [12] was 106%. For the same compound, the viability, T/C [13] was 122%, the viability, T/C [14] was 105% and the viability, T/C [15] was 90.4%. The viability, T/C [16] was 109%, the viability, T/C [17] was 114% and the viability, T/C [18] was 106%. The viability, T/C [19] was 102%, the viability, T/C [20] was 100% and the viability, T/C [21] was 86.7%. For the same compound, the viability, T/C [22] was 102%, the viability, T/C [23] was 98% and the viability, T/C [24] was 97%. The viability, T/C [25] was 91.9%, the viability, T/C [26] was 87.1% and the viability, T/C [27] was 99.8%. The viability, T/C [28] was 88.8%, the viability, T/C [29] was 90.4% and the viability, T/C [30] was 72.2%. It also gave a viability, T/C [31] of 92.9%, a viability, T/C [32] of 74% and a viability, T/C [33] of 79%. The viability, T/C [34] was 80.7%, the viability, T/C [35] was 83.8% and the viability, T/C [36] was 71.4%.
